ChEMBL document CHEMBL1955725, “Structure-guided lead optimization of triazolopyrimidine-ring substituents identifies potent Plasmodium falciparum dihydroorotate dehydrogenase inhibitors with clinical candidate potential” (J Med Chem, 2011)
Values after ≈ are worked out from the molar mass of the structure shown.

What was measured:
[1] = Cmax in Swiss outbred mouse at 50 mg/kg, po; assay type: ADME, organism-based; set-up: dose 50 mg/kg, route oral; details: in vivo
in vivo [2] = details: Swiss outbred, mouse, po, 10 mg/kg
L1210 = test: Cytotoxicity against mouse L1210 cells; assay type: cell-based
in vivo [3] = details: Swiss outbred, mouse, po, 50 mg/kg
[4] = Terminal elimination half life in Sprague-Dawley rat at 0.9 mg/kg, iv; assay type: ADME, organism-based; set-up: dose 0.9 mg/kg, route intravenous; details: in vivo, read-out: beta t1/2 (converted)
[5] = AUC (0 to infinity) in Sprague-Dawley rat at 46.7 mg/kg, po; assay type: ADME, organism-based; set-up: time infinity, dose 46.7 mg/kg, route oral; details: plasma
[6] = Oral bioavailability in Sprague-Dawley rat at 2.1 mg/kg; assay type: ADME, organism-based; details: in vivo
in vivo [7] = details: Sprague-Dawley, rat, po, 18.8 mg/kg
[8] = Cmax in Sprague-Dawley rat at 2.1 mg/kg, po; assay type: ADME, organism-based; set-up: dose 2.1 mg/kg, route oral; details: in vivo
Plasmodium falciparum [9] = test: Antimalarial activity against atovoquone-resistant Plasmodium falciparum TM90C2B by [3H]hypoxanthine incorporation assay in presence of human serum; assay type: functional, organism-based
[10] = Terminal elimination half life in Sprague-Dawley rat at 46.7 mg/kg, po; assay type: ADME, organism-based; set-up: dose 46.7 mg/kg, route oral; details: in vivo, read-out: beta t1/2 (converted)
[11] = AUC (0 to infinity) in Sprague-Dawley rat at 18.8 mg/kg, po; assay type: ADME, organism-based; set-up: time infinity, dose 18.8 mg/kg, route oral; details: plasma
Plasmodium falciparum [12] = test: Antimalarial activity against Plasmodium falciparum 3D7 by [3H]hypoxanthine incorporation assay in presence of albumax; assay type: functional, organism-based
[13] = Plasma protein binding in Swiss outbred mouse by ultracentrifugation; details: read-out: PPB (converted)
Plasmodium falciparum [14] = test: Antimalarial activity against chloroquine-resistant Plasmodium falciparum Dd2 by [3H]hypoxanthine incorporation assay in presence of human serum; assay type: functional, organism-based
Plasmodium falciparum [15] = test: Antimalarial activity against Plasmodium falciparum 3D7 by [3H]hypoxanthine incorporation assay in presence of human serum; assay type: functional, organism-based
[16] = Terminal elimination half life in Swiss outbred mouse at 0.4 mg/kg, po; assay type: ADME, organism-based; set-up: dose 0.4 mg/kg, route oral; details: in vivo, read-out: beta t1/2 (converted)
[17] = Oral bioavailability in Sprague-Dawley rat at 46.7 mg/kg; assay type: ADME, organism-based; details: in vivo
[18] = Cmax in Swiss outbred mouse at 2 mg/kg, po; assay type: ADME, organism-based; set-up: dose 2 mg/kg, route oral; details: in vivo
[19] = Terminal elimination half life in Swiss outbred mouse at 10 mg/kg, po; assay type: ADME, organism-based; set-up: dose 10 mg/kg, route oral; details: in vivo, read-out: beta t1/2 (converted)
HepG2 = test: Cytotoxicity against human HepG2 cells; assay type: cell-based
[20] = Cmax in Sprague-Dawley rat at 18.8 mg/kg, po; assay type: ADME, organism-based; set-up: dose 18.8 mg/kg, route oral; details: in vivo
Mus musculus [21] = test: Time plasma concentration remained above 1 uM in Swiss outbred mouse plasma at 2 mg/kg, po; assay type: ADME, organism-based; set-up: dose 2 mg/kg, route oral; details: in vivo
[22] = Terminal elimination half life in Sprague-Dawley rat at 18.8 mg/kg, po; assay type: ADME, organism-based; set-up: dose 18.8 mg/kg, route oral; details: in vivo, read-out: beta t1/2 (converted)
Plasma = test: Plasma protein binding in human by chromatographic method; assay type: ADME, cell-free
[23] = Plasma protein binding in Sprague-Dawley rat at 2.1 to 46.7 mg/kg, po; assay type: ADME, organism-based; set-up: dose 2.1-46.7 mg/kg, route oral; details: read-out: PPB (converted)
[24] = Oral bioavailability in Sprague-Dawley rat at 18.8 mg/kg; assay type: ADME, organism-based; details: in vivo
in vivo [25] = details: Sprague-Dawley, rat, po, 46.7 mg/kg
Plasmodium falciparum [26] = test: Antimalarial activity against Plasmodium falciparum D10 by [3H]hypoxanthine incorporation assay; assay type: functional, organism-based
[27] = Terminal elimination half life in Sprague-Dawley rat at 2.6 mg/kg, iv; assay type: ADME, organism-based; set-up: dose 2.6 mg/kg, route intravenous; details: in vivo, read-out: beta t1/2 (converted)
[28] = Aqueous solubility of the compound at pH 6.5; assay type: physicochemical
[29] = AUC (0 to infinity) in Swiss outbred mouse plasma at 50 mg/kg, po; assay type: ADME, organism-based; set-up: time infinity, dose 50 mg/kg, route oral
in vivo [30] = details: Swiss outbred, mouse, po, 0.4 mg/kg
Plasmodium falciparum [31] = test: Antimalarial activity against Plasmodium falciparum 3D7 0087/N9 infected in human RBC engrafted NOD-SCID IL-2Rgamma-null mouse assessed as reduction in parasitemia administered orally 3 days post infection qd for 4 days measured 24 hrs after final dose by FACS analysis; assay type: functional; details: 3D7 0087/N9, po
[32] = Cmax in Sprague-Dawley rat at 46.7 mg/kg, po; assay type: ADME, organism-based; set-up: dose 46.7 mg/kg, route oral; details: in vivo
Plasmodium falciparum [33] = test: Antimalarial activity against […] Plasmodium falciparum TM90C2A by [3H]hypoxanthine incorporation assay in presence of human serum; assay type: functional, organism-based
[34] = Cmax in human RBC engrafted NOD-SCID IL-2Rgamma-null mouse infected with Plasmodium falciparum 3D7 0087/N9 at 7 mg/kg, po; assay type: ADME, organism-based; set-up: dose 7 mg/kg, route oral; details: in vivo
[35] = Terminal elimination half life in Swiss outbred mouse at 50 mg/kg, po; assay type: ADME, organism-based; set-up: dose 50 mg/kg, route oral; details: in vivo, read-out: beta t1/2 (converted)
[36] = AUC (0 to infinity) in Sprague-Dawley rat at 2.1 mg/kg, po; assay type: ADME, organism-based; set-up: time infinity, dose 2.1 mg/kg, route oral; details: plasma
in vivo [37] = details: Swiss outbred, mouse, po, 2 mg/kg
Plasmodium falciparum [38] = test: Antimalarial activity against drug-sensitive Plasmodium falciparum D6 by [3H]hypoxanthine incorporation assay in presence of human serum; assay type: functional, organism-based
[39] = Cmax in Swiss outbred mouse at 10 mg/kg, po; assay type: ADME, organism-based; set-up: dose 10 mg/kg, route oral; details: in vivo
Plasmodium falciparum [40] = test: Antimalarial activity against Plasmodium falciparum D10 transfected with yeast DHODH by [3H]hypoxanthine incorporation assay; assay type: functional, organism-based
in vivo [41] = details: NOD-SCID IL-2Rgamma-null, mouse, po, 7 mg/kg
Mus musculus [42] = test: Time plasma concentration remained above 1 uM in Swiss outbred mouse plasma at 0.4 mg/kg, po; assay type: ADME, organism-based; set-up: dose 0.4 mg/kg, route oral; details: in vivo
[43] = Cmax in human RBC engrafted NOD-SCID IL-2Rgamma-null mouse at 7 mg/kg, po; assay type: ADME, organism-based; set-up: dose 7 mg/kg, route oral; details: in vivo
[44] = AUC (0 to infinity) in Swiss outbred mouse plasma at 2 mg/kg, po; assay type: ADME, organism-based; set-up: time infinity, dose 2 mg/kg, route oral
[45] = AUC (0 to infinity) in Swiss outbred mouse plasma at 10 mg/kg, po; assay type: ADME, organism-based; set-up: time infinity, dose 10 mg/kg, route oral
[46] = Terminal elimination half life in Swiss outbred mouse at 2 mg/kg, po; assay type: ADME, organism-based; set-up: dose 2 mg/kg, route oral; details: in vivo, read-out: beta t1/2 (converted)
Plasmodium falciparum [47] = test: Antimalarial activity against chloroquine and pyrimethamine-resistant Plasmodium falciparum K1 by [3H]hypoxanthine incorporation assay in presence of human serum; assay type: functional, organism-based
[48] = AUC (0 to infinity) in Swiss outbred mouse plasma at 0.4 mg/kg, po; assay type: ADME, organism-based; set-up: time infinity, dose 0.4 mg/kg, route oral
in vivo [49] = details: NOD-SCID IL-2Rgamma-null, mouse, po, 7 mg/kg; remark: listed apart in the source
Liver microsomes = test: Intrinsic clearance in human liver microsomes; assay type: ADME, Microsome
[50] = Terminal elimination half life in Sprague-Dawley rat at 2.1 mg/kg, po; assay type: ADME, organism-based; set-up: dose 2.1 mg/kg, route oral; details: in vivo, read-out: beta t1/2 (converted)
Plasmodium falciparum [51] = test: Antimalarial activity against drug-sensitive Plasmodium falciparum HB3 by [3H]hypoxanthine incorporation assay in presence of human serum; assay type: functional, organism-based
in vivo [52] = details: Sprague-Dawley, rat, po, 2.1 mg/kg
Mus musculus [53] = test: Time plasma concentration remained above 1 uM in Swiss outbred mouse plasma at 10 mg/kg, po; assay type: ADME, organism-based; set-up: dose 10 mg/kg, route oral; details: in vivo
[54] = Volume of distribution in Sprague-Dawley rat at 2.6 mg/kg, iv; assay type: ADME, organism-based; set-up: dose 2.6 mg/kg, route intravenous; details: in vivo
[55] = Clearance in Sprague-Dawley rat at 2.6 mg/kg, iv; assay type: ADME, organism-based; set-up: dose 2.6 mg/kg, route intravenous; details: in vivo
[56] = Volume of distribution in Sprague-Dawley rat at 0.9 mg/kg, iv; assay type: ADME, organism-based; set-up: dose 0.9 mg/kg, route intravenous; details: in vivo
Mus musculus [57] = test: AUC (0 to 24 hrs) in human RBC engrafted NOD-SCID IL-2Rgamma-null mouse at 7 mg/kg, po; assay type: ADME, organism-based, Plasma; set-up: time < 24 hr, dose 7 mg/kg, route oral; details: in vivo
[58] = Cmax in Swiss outbred mouse at 0.4 mg/kg, po; assay type: ADME, organism-based; set-up: dose 0.4 mg/kg, route oral; details: in vivo

Structure (SMILES): Cc1cc(Nc2ccc(S(F)(F)(F)(F)F)cc2)n2nc(C(C)(F)F)nc2n1 [DSM-265]
- Cmax [1]: 9.53 µM
- Tmax (in vivo [2]): 1.5 h
- EC50 (L1210): > 50 µM
- Tmax (in vivo [3]): 2 h
- half-life [4]: 10.1 h
- AUC(0-inf) [5]: 322 µM·h
- bioavailability [6]: 66%
- Tmax (in vivo [7]): 7 h
- Cmax [8]: 0.75 µM
- EC50 (Plasmodium falciparum [9]): 0.015 µM
- half-life [10]: 27.9 h
- AUC(0-inf) [11]: 122 µM·h
- EC50 (Plasmodium falciparum [12]): 0.0078 µM
- fraction unbound [13]: 0.004
- EC50 (Plasmodium falciparum [14]): 0.057 µM
- EC50 (Plasmodium falciparum [15]): 0.046 µM
- half-life [16]: 4.1 h
- bioavailability [17]: 61%
- Cmax [18]: 0.44 µM
- half-life [19]: 2.5 h
- EC50 (HepG2): > 50 µM
- Cmax [20]: 3.9 µM
- Time (Mus musculus [21]): 0 h
- half-life [22]: 15.5 h
- PPB (Plasma): 97.4%
- fraction unbound [23]: 0.027
- bioavailability [24]: 57%
- Tmax (in vivo [25]): 17 h
- EC50 (Plasmodium falciparum [26]): 0.086 µM
- half-life [27]: 12.6 h
- solubility [28]: 30 µM (≈ 12.5 µg/mL)
- AUC(0-inf) [29]: 33.8 µM·h
- Tmax (in vivo [30]): 0.5 h
- ED50 (Plasmodium falciparum [31]): 2.8 mg/kg
- ED90 (Plasmodium falciparum [31]): 8.1 mg/kg
- Cmax [32]: 6.4 µM
- EC50 (Plasmodium falciparum [33]): 0.031 µM
- Cmax [34]: 5.3 µM
- half-life [35]: 3.2 h
- AUC(0-inf) [36]: 15.5 µM·h
- Tmax (in vivo [37]): 1 h
- EC50 (Plasmodium falciparum [38]): 0.022 µM
- Cmax [39]: 3.1 µM
- EC50 (Plasmodium falciparum [40]): > 20 µM
- Tmax (in vivo [41]): 4 h
- Time (Mus musculus [42]): 0 h
- Cmax [43]: 6.1 µM
- AUC(0-inf) [44]: 2.72 µM·h
- AUC(0-inf) [45]: 22.6 µM·h
- half-life [46]: 3.5 h
- EC50 (Plasmodium falciparum [47]): 0.057 µM
- AUC(0-inf) [48]: 0.45 µM·h
- Tmax (in vivo [49]): 6.7 h
- Intrinsic clearance (Liver microsomes): < 5 µL/min/mg
- half-life [50]: 11.6 h
- EC50 (Plasmodium falciparum [51]): 0.027 µM
- Tmax (in vivo [52]): 3.25 h
- Time (Mus musculus [53]): 8 h
- Vd [54]: 5.9 L/kg
- clearance [55]: 0.36 L/h/kg
- Vd [56]: 2.9 L/kg
- AUC (Mus musculus [57]): 3469 µM·min
- Cmax [58]: 0.06 µM
